Data on 1 compound can be found in patent US5994361A, “Substituted purinyl derivatives with immunomodulating activity” (priority 1995, dated 1999).

A short description of this data set: Body weight, compound #1 with Cytoxan 20 mg/kg (Example 93). To be noted: compound #1 + CTX 20 mg/kg. In kind it is in vivo. Here is the method:
Combination of compound #1 (25 and 50 mg/kg i.p. daily) plus CTX (20 mg/kg i.v. single bolus) was evaluated against day 4 established DA-3 tumors.

In the case of `CN(C)c1ncnc2c1ncn2CCCCCOC(=O)N[C@H](CCCNC(=N)N)C(=O)O` [Compound #1, N,N-Dimethylaminopurinyl Pentoxycarbonyl D-Arginine], the body weight loss entry is reported as “No significant body weight loss”.
